Measured values: US12310954B2, “Salivary gland regeneration” (The Regents of the University of California, priority 2018, dated 2025)
Each block holds one compound with its values, some of them ahead of it.

Experiments:
[1] = system: SOX2^+ cells in SLG explants; assay: Ex vivo lineage tracing in adult salivary gland explants (Sox2CreERT2; Rosa26mTmG); format: cell-based, mouse; settings: 200 nM, 48 h
Experimental: Salivary glands from Sox2^CreERT2; Rosa26^mTmG mice (recombination induced 24 h prior) were mechanically dissected into <1-mm pieces, placed in complete media in the presence or absence of 200 nM CCh (Sigma-Aldrich) or 10 μM 4-DAMP (Tocris), and cultured for 48 h before being fixed for immunofluorescence. In some cases, mice were irradiated with three doses of 5 Gy before glands were taken for culture as above.
Whole-mount salivary gland and tissue section immunofluorescence analysis has been previously described (Knox et al., 2010). In brief, tissue was fixed with either ice-cold acetone/methanol (1:1) for 1 min or 4% PFA for 20-30 min followed by permeabilizing with 0.1-0.3% Triton X. Tissue was blocked overnight at 4° C. with 10% Donkey Serum (Jackson Laboratories, ME), 1% BSA (Sigma-Aldrich), and MOM IgG-blocking reagent (Vector Laboratories, CA) in 0.01% PBS-Tween 20. […] Antibodies were detected using Cy2-, Cy3-, or Cy5-conjugated secondary Fab fragment antibodies (Jackson Laboratories) and nuclei stained using Hoechst 33342 (1:1,000, Sigma-Aldrich). Fluorescence was analyzed using a Leica Sp5 confocal microscope and NIH ImageJ software.
For immunofluorescent analyses (e.g., FIG. 2D), cells positively stained for markers were counted using ImageJ. Acinar cell size was measured using ImageJ. […]

[2] = system: human salivary gland (SMG or PG) explants; assay: Human salivary gland explant culture with CCh, qPCR; format: cell-based; settings: 200 nM, 4 h, vs untreated
Text: Adult human salivary gland was obtained from discarded, non-identifiable tissue with consent from patients undergoing neck resection (age 28-78, male and female). Informed consent was given by all subjects and experiments conformed to the principles set out in the WMA Declaration of Helsinki and the Department of Health and Human Services Belmont Report. Patients had either had no irradiation therapy (non-IR) or fractionated radiation therapy (IR)<2 years prior to surgery. Tissue was immediately placed in 4% PFA, RNAlater (Qiagen) or DMEM (Thermo Fisher) for live cell explant culture. For ex vivo culture, non-IR tissue was dissected into <1-mm pieces and cultured in serum-free DMEM/F12 containing holotransferrin and ascorbic acid. For explant assays, the tissue (SMG and PG) was incubated with 50-200 nM CCh (200 nM CCh shown in results) for 4 h before being lysed for RNA. For salivary gland explant-parasympathetic submandibular ganglia […] co-culture, tissue was dissected into <1-mm pieces and cultured on a floating filter above serum-free media. E13 mouse parasympathetic submandibular ganglia were isolated as previously described (Knox et al., 2010). One parasympathetic submandibular ganglion per explant was placed next to the human salivary gland and cultured for 7 days and either fixed for immunofluorescent analysis or lysed for RNA.
RNA was isolated from whole tissue using RNAqueous Micro Kit (Ambion). Total RNA samples were DNase-treated (Ambion) prior to cDNA synthesis using SuperScript reagents (Invitrogen, CA). SYBR green qPCR was performed using 5 ng (mouse) or 4-10 ng (human) of cDNA and primers designed using Primer3 and Beacon Designer software or described on PrimerBank (pga.mgh.harvard.edu/primerbank/). Melt curves and primer efficiency were determined as previously described (Hoffman et al., 2002). Gene expression was normalized to the housekeeping genes S18 and S29 (Rps18 and Rsp29) or GAPDH for mouse and GAPDH for human and to the corresponding experimental control. Reactions were run in triplicate and experiments performed 2-3 times.

[3] = system: acinar cells of the sublingual gland; assay: Intraglandular injection of cevimeline, acinar cell proliferation; format: in vivo, mouse; settings: 10 mg/kg (20 μL) directly into sublingual gland, 18 hrs, non-irradiated mice, vs saline
Experimental: Given our previous findings that systemic administration of a muscarinic mimetic promotes salivary gland proliferation, we next determined if local intraglandular injection was also able to promote a mitotic response. To determine if cevimeline could act locally on the salivary gland to induce acinar cell proliferation we injected cevimeline at 10 mg/kg of body weight (20 μL) directly into the sublingual gland and measured proliferation after 18 hrs.
For Intraglandular injection of cevimeline, mice were administered with analgesics 30 min prior to surgery (carprofen and buprenorphine; Patterson Veterinary and Buprenex; 0.1 mg/kg and […] (IP), respectively) and anaesthetized via inhalation with 2% isoflurane/O2mix. The surgical area was shaved and prepared for incision with alternating iodine and alcohol washes, followed by local anesthetic (lidocaine; Hospira Inc., 8 mg/kg). […]
Tissue section immunofluorescence analysis was processed as follows. […] Antibodies were detected using Cy2-, Cy3- or Cy5-conjugated secondary Fab fragment antibodies (1:300, Jackson Laboratories) and nuclei stained using Hoescht 33342 (1:1000, AnaSpec Inc.). […] Slides were mounted using Fluoromount-G (SouthernBiotech) and fluorescence was analyzed using a Leica Sp5 confocal microscope. Image processing and quantification was performed using NIH ImageJ software.

[4] = In vitro cevimeline release from alginate hydrogels (LC-MS/MS); format: physicochemical
Experimental: A Shimadzu Prominence LC-20ADXR system interfaced to a 4500 QTrap mass spectrometer with an electrospray ionization (ESI) source was operated for LC-MS/MS analysis. The chromatographic separation was achieved using a Phenomenex KineteX® C18 (50×3 mm, 2.6 μm) column coupled with a Phenomenex SecurityGuard C18 guard column (3 mm×2.0 mm). The column temperature was controlled at 30° C. Mobile phase A was 0.1% Trifluoroacetic acid in water and mobile phase B was acetonitrile (ACN). The injection volume was 10 μL and the flow rate was 0.5 mL/min. The gradient condition was: (time/minute, % mobile phase B): (0, 15), (1, 15), (2.5, 22.8), (2.6, 98), (5, 98), (5.1, 15), and (8, 15). The source parameters included curtain gas of 45 psi, ion spray voltage of 4000 V, ion source temperature of 550, and medium collision gas.
Standard working solutions of cevimeline were prepared over the range from of 10.0-10000.0 ng/mL in methanol. Working solutions were spiked into 100 μL of DMEM to generate the standards or QC samples. The final concentrations of the calibration standards were 0.5, 1.0, 2.5, 5.0, 10.0, 25.0, 50.0 and 100.0, 250.0 and 500 ng/mL in DMEM. The QC samples were 0.9, 4, 30.0 and 400.0 ng/mL.
For the sample preparation step, to each 100 μL DMEM, 10 μL IS working solution (1000 ng/mL) was added. 96-Well Protein Precipitation Filter Plate Sigma-Aldrich (St. Louis, MO) and 300 μl of MeOH:ACN (15:85) were used for protein precipitation. 200 μl of NH4OH 5% was added to 200 μl of the sample after filtration and 10 μl was injected to the LCMS system. The bioanalytical method was validated in accordance with current U.S. FDA guidelines including selectivity, linearity, intra- and interday precision and accuracy, recovery and stability (“Guidance for Industry, Bioanalytical Method Validation,”2018 fda.gov/media/70858/download).
In vitro cevimeline (CV) release from OA hydrogels was tested by creating 1 mm×4 mm disks with either a 2 or 5% oxidation at a weight/volume of 2, 5, or 10%. Alginate+cevimeline (Abcam, ab141317) hydrogels were created by resuspending the drug at the desired concentration in the DMEM prior to mixing with the lyophilized OA, subsequent crosslinking proceeds as described above to encapsulate the drug with the OA hydrogel. Three 4 mm alginate+cevimeline hydrogels were placed in 0.4 μm transwell in a 12-well plate containing 3.2 ml of DMEM incubating in 37° C. with slow continuous agitation (100 RPM). Sample media (3 ml DMEM) was collected and replenished at 4 hours, 1-, 2-, 3-, 4-, 5-, and 7 days (D). Three hydrogels were pooled together with an average of 3-5 separate replicates (samples) at each time point. Sample media was stored at −20° C. until mass spectroscopy analysis was performed. […]

[5] = system: acinar cells of irradiated salivary glands; assay: Cell proliferation in salivary glands after gamma-radiation induced damage; format: in vivo, mouse; settings: 14 days after 10Gy, 18 hrs, vs saline
[6] = cited from earlier work
[7] = long term oral use in patients; cited from earlier work

SMILES: C[N+](C)(C)CCOC(N)=O [CCh, carbachol]
- GFP^+ clones ([1]; healthy (no IR) SLG tissue): increase
- cell proliferation (Ki67^+ cells) ([1]; healthy SLG tissue): increase
- GFP^+ cells in IR explants ([1]; irradiated SLG explants, compared to IR alone): increased
- expression of AQP3 ([2]; n=4 individuals): significantly increased
- expression of AQP5 ([2]; n=4 individuals): significantly increased
- expression of CHRM1 ([2]; n=4 individuals): significantly increased
- expression of CHRM3 ([2]; n=4 individuals): significantly increased
- expression of MIST1 ([2]; n=4 individuals): significantly increased
- expression of SOX2 ([2]; n=4 individuals): significantly increased
- KRT19 gene expression [2]: increase
- expression of ductal marker EGFR [2]: remained unchanged
- expression of ductal marker KRT7 [2]: remained unchanged
- expression of ductal marker KRT8 [2]: remained unchanged

- release rates with different starting drug loading ([4]; 2% OA hydrogels at 5 wt %, different initial cevimeline loading per disk): remain relatively consistent
- cevimeline released by 2 days ([4]; from OA alginate hydrogels (2 or 5% OA; 2, 5 or 10 wt %)): over 85±5%
- day by which all cevimeline had been released ([4]; from OA hydrogels): ≤ 4 days
- duration of sustained release ([4]; from alginate hydrogel): 2 days
SMILES: CC1OC2(CS1)CN1CCC2CC1 (stereo not shown) [cevimeline]
- acinar cell proliferation [3]: significantly increased
- proliferation of acinar cells in irradiated mice ([5]; local (intraglandular) 10 mg/kg): increased
- proliferation of acinar cells in irradiated mice ([5]; systemic (i.p.) 10 mg/kg): increased
- pKA [6]: 9.5
- salivary gland function [7]: improves salivary gland function
